According to the NIST ThermoML archive (doi:10.1016/j.jct.2017.03.006):
Numbers after ± are expanded uncertainties.

Assay: xn = mol fraction of the nth substance listed
Conditions: Liquid; for mass density: Vibrating tube method; for viscosity: Concentric cylinders viscometry

Cc1ccc(C)c(C)c1 [1,2,4-trimethylbenzene] + CCC(C)O
Conditions | mass density [kg/m3] | viscosity [mPa·s]
273.15 K, 60000 kPa, x2 = 0.1 | 917.1 ± 0.7 | –
273.15 K, 60000 kPa, x2 = 0.1989 | 911.9 ± 0.7 | –
273.15 K, 60000 kPa, x2 = 0.3011 | 906.2 ± 0.8 | –
273.15 K, 60000 kPa, x2 = 0.4002 | 900.7 ± 0.8 | –
273.15 K, 60000 kPa, x2 = 0.5001 | 894.6 ± 0.8 | –
273.15 K, 60000 kPa, x2 = 0.5997 | 888.3 ± 0.8 | –
273.15 K, 60000 kPa, x2 = 0.6999 | 881.3 ± 0.8 | –
273.15 K, 60000 kPa, x2 = 0.7999 | 873.8 ± 0.8 | –
273.15 K, 60000 kPa, x2 = 0.9 | 865.5 ± 0.8 | –
273.15 K, 70000 kPa, x2 = 0 | 926.2 ± 0.7 | –
273.15 K, 70000 kPa, x2 = 0.1 | 921.5 ± 0.8 | –
273.15 K, 70000 kPa, x2 = 0.1989 | 916.2 ± 0.8 | –
273.15 K, 70000 kPa, x2 = 0.3011 | 910.7 ± 0.8 | –
273.15 K, 70000 kPa, x2 = 0.4002 | 905.2 ± 0.8 | –
273.15 K, 70000 kPa, x2 = 0.5001 | 899.2 ± 0.8 | –
273.15 K, 70000 kPa, x2 = 0.5997 | 892.8 ± 0.8 | –
273.15 K, 70000 kPa, x2 = 0.6999 | 886 ± 0.8 | –
273.15 K, 70000 kPa, x2 = 0.7999 | 878.4 ± 0.8 | –
273.15 K, 70000 kPa, x2 = 0.9 | 870.2 ± 0.8 | –
273.15 K, 80000 kPa, x2 = 0 | 930.3 ± 0.8 | –
273.15 K, 80000 kPa, x2 = 0.1 | 925.7 ± 0.8 | –
273.15 K, 80000 kPa, x2 = 0.1989 | 920.6 ± 0.8 | –
273.15 K, 80000 kPa, x2 = 0.3011 | 915 ± 0.8 | –
273.15 K, 80000 kPa, x2 = 0.4002 | 909.6 ± 0.8 | –
273.15 K, 80000 kPa, x2 = 0.5001 | 903.5 ± 0.8 | –
273.15 K, 80000 kPa, x2 = 0.5997 | 897.2 ± 0.8 | –
273.15 K, 80000 kPa, x2 = 0.6999 | 890.3 ± 0.8 | –
273.15 K, 80000 kPa, x2 = 0.7999 | 882.8 ± 0.8 | –
273.15 K, 80000 kPa, x2 = 0.9 | 874.6 ± 0.8 | –
273.15 K, 90000 kPa, x2 = 0 | 934.2 ± 0.8 | –
273.15 K, 90000 kPa, x2 = 0.1 | 929.8 ± 0.8 | –
273.15 K, 90000 kPa, x2 = 0.1989 | 924.7 ± 0.8 | –
273.15 K, 90000 kPa, x2 = 0.3011 | 919.1 ± 0.8 | –
273.15 K, 90000 kPa, x2 = 0.4002 | 913.7 ± 0.8 | –
273.15 K, 90000 kPa, x2 = 0.5001 | 907.7 ± 0.8 | –
273.15 K, 90000 kPa, x2 = 0.5997 | 901.4 ± 0.8 | –
273.15 K, 90000 kPa, x2 = 0.6999 | 894.6 ± 0.8 | –
273.15 K, 90000 kPa, x2 = 0.7999 | 887.1 ± 0.8 | –
273.15 K, 90000 kPa, x2 = 0.9 | 878.9 ± 0.8 | –
273.15 K, 100000 kPa, x2 = 0 | 938 ± 0.8 | –
273.15 K, 100000 kPa, x2 = 0.1 | 933.7 ± 0.8 | –
273.15 K, 100000 kPa, x2 = 0.1989 | 928.6 ± 0.8 | –
273.15 K, 100000 kPa, x2 = 0.3011 | 923.1 ± 0.8 | –
273.15 K, 100000 kPa, x2 = 0.4002 | 917.7 ± 0.8 | –
273.15 K, 100000 kPa, x2 = 0.5001 | 911.7 ± 0.8 | –
273.15 K, 100000 kPa, x2 = 0.5997 | 905.5 ± 0.8 | –
273.15 K, 100000 kPa, x2 = 0.6999 | 898.7 ± 0.8 | –
273.15 K, 100000 kPa, x2 = 0.7999 | 891.2 ± 0.8 | –
273.15 K, 100000 kPa, x2 = 0.9 | 883 ± 0.9 | –
273.15 K, 110000 kPa, x2 = 0 | 941.7 ± 0.8 | –
273.15 K, 110000 kPa, x2 = 0.1 | 937.6 ± 0.8 | –
273.15 K, 110000 kPa, x2 = 0.1989 | 932.5 ± 0.8 | –
273.15 K, 110000 kPa, x2 = 0.3011 | 927 ± 0.8 | –
273.15 K, 110000 kPa, x2 = 0.4002 | 921.6 ± 0.8 | –
273.15 K, 110000 kPa, x2 = 0.5001 | 915.7 ± 0.8 | –
273.15 K, 110000 kPa, x2 = 0.5997 | 909.4 ± 0.8 | –
273.15 K, 110000 kPa, x2 = 0.6999 | 902.5 ± 0.8 | –
273.15 K, 110000 kPa, x2 = 0.7999 | 895.1 ± 0.9 | –
273.15 K, 110000 kPa, x2 = 0.9 | 887 ± 0.9 | –
273.15 K, 120000 kPa, x2 = 0 | 945.2 ± 0.8 | –
273.15 K, 120000 kPa, x2 = 0.1 | 941.3 ± 0.8 | –
273.15 K, 120000 kPa, x2 = 0.1989 | 936.2 ± 0.8 | –
273.15 K, 120000 kPa, x2 = 0.3011 | 930.8 ± 0.8 | –
273.15 K, 120000 kPa, x2 = 0.4002 | 925.3 ± 0.8 | –
273.15 K, 120000 kPa, x2 = 0.5001 | 919.5 ± 0.8 | –
273.15 K, 120000 kPa, x2 = 0.5997 | 913.2 ± 0.8 | –
273.15 K, 120000 kPa, x2 = 0.6999 | 906.4 ± 0.8 | –
273.15 K, 120000 kPa, x2 = 0.7999 | 899 ± 0.9 | –
273.15 K, 120000 kPa, x2 = 0.9 | 890.8 ± 0.9 | –
273.15 K, 130000 kPa, x2 = 0 | 948.6 ± 0.8 | –
273.15 K, 130000 kPa, x2 = 0.1 | 944.9 ± 0.8 | –
273.15 K, 130000 kPa, x2 = 0.1989 | 939.9 ± 0.8 | –
273.15 K, 130000 kPa, x2 = 0.3011 | 934.4 ± 0.8 | –
273.15 K, 130000 kPa, x2 = 0.4002 | 929 ± 0.8 | –
273.15 K, 130000 kPa, x2 = 0.5001 | 923.2 ± 0.8 | –
273.15 K, 130000 kPa, x2 = 0.5997 | 916.9 ± 0.8 | –
273.15 K, 130000 kPa, x2 = 0.6999 | 910.1 ± 0.9 | –
273.15 K, 130000 kPa, x2 = 0.7999 | 902.7 ± 0.9 | –
273.15 K, 130000 kPa, x2 = 0.9 | 894.6 ± 0.9 | –
273.15 K, 140000 kPa, x2 = 0 | 952 ± 0.8 | –
273.15 K, 140000 kPa, x2 = 0.1 | 948.2 ± 0.8 | –
273.15 K, 140000 kPa, x2 = 0.1989 | 943.3 ± 0.8 | –
273.15 K, 140000 kPa, x2 = 0.3011 | 937.6 ± 0.8 | –
273.15 K, 140000 kPa, x2 = 0.4002 | 932.3 ± 0.8 | –
273.15 K, 140000 kPa, x2 = 0.5001 | 926.7 ± 0.8 | –
273.15 K, 140000 kPa, x2 = 0.5997 | 920.4 ± 0.8 | –
273.15 K, 140000 kPa, x2 = 0.6999 | 913.4 ± 0.9 | –
273.15 K, 140000 kPa, x2 = 0.7999 | 906 ± 0.9 | –
273.15 K, 140000 kPa, x2 = 0.9 | 897.9 ± 0.9 | –
293.15 K, 100 kPa, x2 = 0 | 875.1 ± 0.7 | 0.888 ± 0.019
293.15 K, 100 kPa, x2 = 0.1 | 869.3 ± 0.7 | –
293.15 K, 100 kPa, x2 = 0.1001 | – | 0.885 ± 0.019
293.15 K, 100 kPa, x2 = 0.2261 | – | 0.909 ± 0.019
293.15 K, 100 kPa, x2 = 0.3 | – | 0.935 ± 0.02
293.15 K, 100 kPa, x2 = 0.3966 | – | 1.013 ± 0.021
293.15 K, 100 kPa, x2 = 0.5298 | – | 1.121 ± 0.024
293.15 K, 100 kPa, x2 = 0.6001 | – | 1.25 ± 0.026
293.15 K, 100 kPa, x2 = 0.7001 | – | 1.48 ± 0.031
293.15 K, 100 kPa, x2 = 0.7997 | – | 1.85 ± 0.038
293.15 K, 100 kPa, x2 = 0.9001 | – | 2.47 ± 0.051
